Source: patent publication US4968686A, “Acyclic pyrrolo [2,3-d]pyrimidine analogs as antiviral agents” (The Regents of The University of Michigan, priority 1989, dated 1990)
pIC50: −log10 of the molar value. Read-outs that look alike come from different tables or passages of the source.

Columns and labels:
[1] = Visual cytotoxicity scoring in HFF cells; format: cell-based; settings: human, Table 1, at time of HCMV plaque enumeration, read-out: 50% Inhibitory Concentration Cytotoxicity HFF (visual)
Description: (§1) Cytotoxicity produced in HFF and BSC-1 cells was estimated by visual scoring of cells not affected by virus infection in the HCMV and HSV-1 plaque reduction assays. Cytopathology was estimated at 35- and 60-fold magnification and scored on a zero to four plus basis. Wells were scored on the day of staining.
(§2) Dose-response relationships were used to compare drug effects. These were constructed by linearly regressing the percent inhibition of parameters derived in the preceding sections against log drug concentrations. The 50% inhibitory (I50) concentrations were calculated from the regression lines using the methods described by Goldstein. See Goldstein, A., Biostatistics: An Introductory Text, MacMillan, N.Y., 1964, pp. 156-161. Along with the I50 concentration for visual cytotoxicity, the averaged I50 concentrations are compared to I50 concentrations for inhibition for HCMV or HSV-1 replication. Compounds for which the ratio of cytotoxicity I50 concentrations to antiviral I50 concentrations (in vitro therapeutic index) were greater than 10, were considered for further study.

HCMV [2] = experiment: HCMV plaque (focus) reduction assay; format: cell-based; settings: Human betaherpesvirus 5; Table 1; HFF cells; read-out: 50% Inhibitory Concentration HCMV Plaque
Description: (§3) The 148 strain of HSV-1 was used in most experiments and was provided by Dr. T. W. Schafer of Schering corporation. The HF strain of HSV-1 was used in selected experiments and was obtained from Dr. G. H. Cohen, University of Pennsylvania. The Towne strain, plaque-purified isolate Po, of HCMV was a gift of Dr. Mark Stinski, University of Iowa.
(§4) HCMV was titered in 24-well cluster dishes which were planted to contain 5×10^4 cells/well, grown as described above. When the cells were 70 to 80% confluent, 0.2 ml of the virus suspension was added per wall and adsorbed as described above. At least three ten-fold dilutions of each preparation were used. Following virus adsorption, the cell sheets were overlayed with 0.5% methocel (4000 CPS) in maintenance medium [MEM(E) with 1.1 gm/liter NaHCO3, 100 units/ml penicillin G, 100 μg/ml streptomycin, and 5% fetal bovine serum]. The cultures were incubated in a humidified atmosphere of 4% CO2 -96% air. Viral foci were visible 5 to 7 days after infection using at least 10-fold magnification. Cells were fixed and stained by a 10-minute exposure to a 0.1% solution of crystal violet in 20% methanol 7 to 12 days after infection. Microscopic foci were enumerated at 20-fold magnification using a Nikon Profile Projector.
(§5) The effect of compounds of the replication of HCMV has been measured using both a plaque (focus) reduction assay and a titer (yield) reduction assay. For the former, HFF cells in 24-well culture dishes were infected with approximately 50 p.f.u. of HCMV per well using the procedures detailed above. Compounds dissolved in growth medium were added in three to six selected concentrations to triplicate wells following virus adsorption. Following incubation at 37° C. for 7 to 10 days, cell sheets were fixed, stained and microscopic foci were enumerated as described above. Drug effects were calculated as a percentage of reduction in number of foci in the presence of each drug concentration compared to the number observed in the absence of drug. DHPG (ganciclovir) was used as a positive control in all experiments.
as §2

HCMV [3] = experiment: HCMV titer, plaque or yield reduction; format: cell-based, human cytomegalovirus (Towne strain) in HFF cells
Description: as §3, §4, §5
For titer reduction analysis, HFF cells were planted as described above in 24-well cluster dishes or in 25 cm^2 flasks. When monolayers were approximately 70% confluent, HCMV was added at a m.o.i. of 0.5 p.f.u. per cell and adsorbed as detailed above. Compounds dissolved in growth medium were added in one or one-half logarithm10 dilutions and incubation continued at 37° C. After 7 to 10 days of incubation, culture dishes or flasks were frozen at […] For titer determination, cells were thawed and then subjected to two more cycles of freezing and thawing at 37° C. Serial, one-logarithm10 dilutions of the final suspension were prepared and inoculated onto new cultures of HFF cells. Titer determination was as detailed above in part (1) (b).
as §2

HSV-1 = HSV-1 titer (yield) reduction assay; format: cell-based, herpes simplex virus type 1 in KB cells; settings: read-out: HSV-1 Yield, 90% inhibitory concentration (I90)
Description: as §3
HSV-1 was titered using monolayer cultures of BSC-1 cells. Cells were planted at 3×10^5 cells/well using 6-well cluster dishes. MEM(E) supplemented with 10% fetal bovine serum was employed as medium. After 22-24 hours, cells were 90% confluent and were inoculated in triplicate using at least three ten-fold dilutions with 0.2 ml of the virus suspension to be assayed and incubated in a humidified 4% CO2 […] atmosphere for one hour to permit viral adsorption. Following virus adsorption, the cell sheet was overlayed with 5 ml of MEM(E) with 5% serum plus 0.5% methocel (4000 CPS) and incubated an additional two to three days. Cells were fixed and stained with 0.1% crystal violet in 20% methanol and macroscopic plaques enumerated.
Plaque reduction experiments were HSV-1 were performed using monolayer cultures of BSC-1 cells. The assay was performed exactly as described above except that the 0.2 ml virus suspension contained approximately 100 p.f.u. of HSV-1. Compounds to be tested were dissolved in the overlay medium at concentrations usually ranging from 0.1 to 100 μM in half-or-one logarithm10 dilutions. Titer reduction assays were performed by planting KB cells in 25 cm^2 plastic tissue culture flasks 10 to 24 hours prior to infection. At the onset of experiments, logarithmically growing replicate monolayer cultures were 60 to 80% confluent and contained 2.5 to 4.5×10^6 cells/flask. Medium was decanted and the cultures were infected with 2 to 10 p.f.u. of HSV-1 per cell. Virus was contained in 1.0 ml of VGM supplemented with 5% fetal bovine serum. After a 1 hour adsorption period at […], the cell sheet was rinsed twice with 2 ml of VGM without serum to remove unadsorbed virus and 5 ml of VGM containing drugs at three to five selected concentrations added in duplicate. Following an 18- to 22-hour incubation at 37° C., infected monolayers were treated with EDTA-trypsin to suspend the cells; aliquots were removed, subjected to three cycles of freezing and thawing, and stored at -76° C. for subsequent virus assay. Virus was titered on BSC-1 cells as described above.
Drug effects were calculated as a percentage of the reduction in virus titers in the presence of each drug concentration compared to the titer obtained in the absence of drug. Acylovir was used as a positive control in all experiments.
as §2

[4] = Visual cytotoxicity scoring in BSC-1 cells; format: cell-based; settings: african green monkey, Table 1, at time of HSV-1 plaque enumeration, read-out: 50% Inhibitory Concentration Cytotoxicity BSC (visual)
Description: as §1, §2

[5] = Human betaherpesvirus 5, Table 2, read-out: HCMV Titer, Plaque or Yield Reduction, 50% Inhibitory Concentration
[6] = Human alphaherpesvirus 1, Table 1, I90, strain S148, KB cells

Nc1nc2c(ncn2COCCO)c(=O)[nH]1 [Acyclovir, reference compound]
CC50 [1]: > 100 µM | pIC50 (HCMV [2]): 4.20 | activity against HCMV (in words) (HCMV [3]): only modest activity | pIC50 (HCMV [3]; [5]): 4.20 | IC90 (HSV-1; [6]): 7 µM | CC50 [4]: > 100 µM

Nc1nc(O)c2ncn(COC(CO)CO)c2n1 [Ganciclovir (DHPG), reference compound]
CC50 [1]: > 100 µM | pIC50 (HCMV [2]): 5.06 | pIC50 (HCMV [3]; [5]): 5.06 | IC90 (HSV-1; Human alphaherpesvirus 1, KB): 1.2 µM | CC50 [4]: > 100 µM

Nc1ncnc2c1c(Cl)cn2COCCO [UMJD 100, 4-Amino-5-chloro-7-(2-hydroxyethoxymethyl)pyrrolo[2,3-d]-pyrimidine]
CC50 [1]: > 100 µM | pIC50 (HCMV [2]): 4.66 | activity against HCMV (in words) (HCMV [3]): active | pIC50 (HCMV [3]; [5]): 4.80 | IC90 (HSV-1; [6]): 50 µM | CC50 [4]: > 100 µM

Nc1ncnc2c1c(Br)cn2COCCO [UMJD 102, 4-Amino-5-bromo-7-(2-hydroxyethoxymethyl)pyrrolo[2,3-d]-pyrimidine]
CC50 [1]: 100 µM | pIC50 (HCMV [2]): 5.46 | activity against HCMV (in words) (HCMV [3]): active | pIC50 (HCMV [3]; Human betaherpesvirus 5, read-out: HCMV Titer, Plaque or Yield Reduction, 50% Inhibitory Concentration): 5.41 | IC90 (HSV-1; [6]): 30 µM | CC50 [4]: > 100 µM

Nc1ncnc2c1c(I)cn2COCCO [UMJD 104, 4-Amino-5-iodo-7-(2-hydroxyethoxymethyl)pyrrolo[2,3-d]-pyrimidine]
CC50 [1]: 100 µM | pIC50 (HCMV [2]): 4.62 | activity against HCMV (in words) (HCMV [3]): active | pIC50 (HCMV [3]; [5]): 4.62 | IC90 (HSV-1; [6]): > 100 µM | CC50 [4]: > 100 µM

Nc1ncnc2c1c(Br)cn2COC(CO)CO [UMJD 183, 4-amino-5-bromo-7-[(1,3-dihydroxy-2-propoxy)methyl]-pyrrolo[2,3-d]pyrimidine]
CC50 [1]: > 100 µM | pIC50 (HCMV [2]): 5.80 | activity against HCMV (in words) (HCMV [3]): most active | IC90 (HSV-1; [6]): 17 µM | CC50 [4]: > 100 µM

Nc1ncnc2c1c(Cl)cn2COC(CO)CO [UMJD 186, 4-amino-5-chloro-7-[(1,3-dihydroxy-2-propoxy)-methyl]pyrrolo[2,3-d]pyrimidine]
CC50 [1]: > 100 µM | pIC50 (HCMV [2]): 5.01 | IC90 (HSV-1; [6]): 3.5 µM | CC50 [4]: > 100 µM

OCC(CO)OCn1cc(Br)c2c(NO)ncnc21 [UMJD 299, 4-hydroxylamino-5-bromo-7-[(1,3-dihydroxy-2-propoxy)methyl]pyrrolo[2,3-d]pyrimidine]
CC50 [1]: > 100 µM | pIC50 (HCMV [2]): 5.92 | activity against HCMV (in words) (HCMV [3]): active and nearly as potent as the 4-amino analogs | IC90 (HSV-1; [6]): > 100 µM
